Literature values, collected in patent US20040228830A1 (Collegium Pharmaceutical, Inc., priority 2003, published 2004).

What was measured:
[1] = human, in vivo
[2] = 200 mg/day
[3] = system: beta adrenoceptors in rat cortex; conditions: after chronic administration
uptake of dopamine = uptake of dopamine (Homo sapiens, UniProt Q01959)
[4] = after one week of dose escalation
[5] = intravenous, 10 patients
[6] = 75-100 mg/day twice daily for 8 weeks, elderly patients with depression
[7] = metabolism in the liver

uptake of dopamine, sequence (Q01959 whole entry): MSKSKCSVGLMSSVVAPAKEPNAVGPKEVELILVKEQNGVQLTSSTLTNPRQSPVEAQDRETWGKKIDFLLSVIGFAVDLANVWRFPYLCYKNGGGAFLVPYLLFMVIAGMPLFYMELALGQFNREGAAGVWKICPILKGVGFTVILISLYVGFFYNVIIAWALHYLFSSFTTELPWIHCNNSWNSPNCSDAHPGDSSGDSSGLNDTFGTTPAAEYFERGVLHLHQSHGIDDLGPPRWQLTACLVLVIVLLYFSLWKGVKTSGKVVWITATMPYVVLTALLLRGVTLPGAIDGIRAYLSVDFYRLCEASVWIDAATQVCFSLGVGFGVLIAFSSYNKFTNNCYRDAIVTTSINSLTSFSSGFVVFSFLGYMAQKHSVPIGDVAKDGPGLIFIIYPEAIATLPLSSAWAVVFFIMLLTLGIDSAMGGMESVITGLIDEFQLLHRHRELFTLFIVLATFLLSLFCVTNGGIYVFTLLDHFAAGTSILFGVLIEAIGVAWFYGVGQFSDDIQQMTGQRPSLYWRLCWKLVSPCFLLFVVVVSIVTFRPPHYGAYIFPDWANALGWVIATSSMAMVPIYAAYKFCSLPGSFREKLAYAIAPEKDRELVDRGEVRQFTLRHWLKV

CCN(CC)C(=O)C1(c2ccccc2)CC1CN (stereo not shown) [milnacipran, Milnacipran]
toxicity in humans [1]: non-toxic
antidepressant efficacy versus lower doses [2]: superior to the lower doses
effect on the number of beta adrenoceptors in rat cortex [3]: does not affect
effect on the uptake of dopamine (uptake of dopamine): does not affect
most commonly reported reason for discontinuation of treatment because of adverse effects [4]: nausea and vomiting
patients reporting transient nausea [5]: five
only adverse event reported more frequently for milnacipran recipients than for imipramine recipients [6]: nausea
number of chemically identified metabolites [7]: ten
most common dose-related side effect reported by patients (four weeks dose escalation): nausea
pain improvement (twice-a-day administration of immediate release formulation, fibromyalgia): statistically superior to that of placebo treatment
